Measured values reported in patent US20220339257A1, “METHODS TO INCREASE THE SENSITIVITY AND REVERSING THE RESISTANCE TO DRUGS” (Biomarker Strategies, LLC, priority 2019, published 2022).

Assays:
Assay type in all cases: cell-based
A-253 = assay: WST-8 cell viability assay; details: in combination with spermidine, 72 hours
Experimental: (§1) Day 1: cells were harvested cells from flask (4 mL accutase for T175 for 3-5 minutes), and spin down for 5 mins at 1200 rpm. The supernatant was poured off, and the pellet gently resuspended in 1 mL media. Countess counts were performed, and the cells were diluted in media (10% FBS). With multi-channel pipette, 2500 cells were seeded in 100 uL of media (10% FBS) in each well of 96 well plate. The cells were let to adhere and grow for 24 hours. Day 2: serial drug dilutions of MTAs+/−EMs at 5× of concentrations (as done above) were performed in media (10% FBS). 20 uL of media form each well of the 96 well plate (80 uL media left in wells) was removed, and 20 uL of appropriate 5× drug dilutions was added to each respective well (for a 1× conc). The cells were incubated with drug for 72 hours in 37C incubator. Day 5: 10 uL of WST-8 reagent was added to each well of the 96 well plate and mixed gently. the plates were incubated up to 4 hours at 37C in dark, and absorbance readings were taken at […] and 600 nm wavelengths at 1, 2, 3 and 4h, until control absorbance levels were 1.5-2.0).
(§2) WST-8 Assay: MTA and EM effects on cell viability were measured by Cell Counting Kit8 (WST-8) colorimetric assay using water-soluble tetrazolium salt WST-8 reagent (Vita Scientific Cat. #DBOC00128). For the assay, cells were seeded in 96-well plates at 2,500 cells per well, in 100 μL of 10% FBS-containing media. After 24 hours, a 1 nM to 10 μM range of MTA and/or 1 ng/mL to 1 mg/mL range of EM doses was added and incubated for 72 hours. After treatment, a 10% volume of WST-8 reagent was added to each well and cells were incubated at 37° C. for up to 4 hours. Solution absorbance was measured at wavelengths of 450 nm and 600 nm at 1-, 2-, 3-, and 4-hour's incubation. Percentage viability of drug-treated cells was calculated relative to untreated control cells. Results were confirmed by three independent experiments.
(§3) For studying the effects of various molecularly targeted agents (MTAs) and enhancer molecules (EMs) alone as well as in combination: HCC827, PC-9, A427, Calu-6, H2228, H358, H1299, H460, H292, H1838, H2170, and H226 (non-small cell lung cancer; NSCLC); and SK-MES-1 […], CAL27, OE21, KYSE-70, A-253, BICR-16, PE/CA-PJ15 and Ca9-22 (head and neck squamous cell carcinoma; HNSCC); SK-MEL-2, SK-MEL-28, RPMI-7951 and A7 (melanoma); HTB-38 and HCT116 (colorectal cancer; CRC); BxPC-3 and HPAF-II (pancreatic cancer); HEPG2 (hepatocellular carcinoma; HCC); A498 (renal cell carcinoma; RCC) cells were used. Other cell lines, including those from other cancer types, or cells collected from more complex sample types such as xenografts and clinical samples can be used. Ultimately, these combinations can be utilized in various clinical and pre-clinical samples and studies. Using the WST-8 cell viability assay, a MTA+EM-induced anti-cancer/anti-growth activity in multiple cell lines was discovered (FIGS. 8-15). Other viability assays, for example, MTT, HoPI staining, dye exclusion (e.g. trypan blue), can be used readily. […] The cut-off value for classifying a “strong anti-cancer/anti-growth enhancement” was a response resulting in >70% reduction in cell survival compared to untreated control cells (100%), while showing greater reduction compared to both MTA and EM alone.

Ca9-22 = assay: WST-8 cell viability assay; details: in combination with osimertinib, 72 hours
Experimental: as §1, §2, §3

Calu-6 = assay: WST-8 cell viability assay
Experimental: as §1, §2, §3

H2170 = assay: WST-8 cell viability assay; details: in combination with GSK-458, 72 hours
Experimental: as §1, §2, §3

HPAF-II = assay: WST-8 cell viability assay
Experimental: as §1, §2, §3

Ca9-22 cells = assay: Western blot of protein biomarkers; details: osimertinib (100 nM)+IL-17 (10 ng/mL)
Experimental: (§4) MTA and EM effects on protein biomarker expression were measured by western blotting. For the assay cell lines (Ca9-22, PE/CA-PJ15, HTB-38, HPAF-II, CAL27, BICR-16, A-253, Calu-6, PC-9, H1838, RPMI-7951 and A7) were cultured and treated with doses of MTAs alone, EMs alone and in combination and then lysed for protein analysis. This method can readily be conducted under adherent or suspension conditions, manually or on automated instruments, such as SnapPath. A total of 0.3×10^6 cells per well were seeded in 6 well plates with 10% FBS-containing media and incubated for 24 hours. Cells were then treated with MTA and/or EM concentrations for 24 hours. For total protein extraction, briefly, each sample media was collected, and wells were washed with HMS, and the wash was combined with its respective media collection. Cells were then detached using Accutase solution and again collected in its respective sample media and another HMS well wash and collection was performed. All cell solutions were centrifuged, washed with ice-cold PBS, and centrifuged again. Cell pellets were lysed in 250 μL of ice-cold 1× lysis buffer with protease and phosphatase inhibitor cocktails and incubated for 10 minutes on ice. Lysates were clarified with a centrifugation (14,000 rpm) for 10 minutes at 4° C. Cell lysates were quantified using Bio-Rad DC Protein Assay (Bio-Rad Cat. #5000116).
(§5) For all western blots, an equal amount of protein (3-5 μg) was loaded into SDS-polyacrylamide gels (Mini-Protean TGX Precast Gel; Bio-Rad, e.g. 7.5%, Cat. #4561024; 10%, Cat. #4561035; 12%, Cat. #4561045; or 4-15%, Cat. #4561085). Proteins were separated at 215V for at least 30 minutes in 1× Tris/Glycine/SDS buffer (Bio-Rad Cat. #1610772) and transferred to PVDF membranes using a Trans-Blot Turbo (Bio-Rad Cat. #1704155) for 7 minutes in transfer buffer (Trans-Blot Turbo Transfer Kit, Bio-Rad Cat. #1704273). Blots were blocked at room temperature for 1 hour with 5% non-fat dry milk in tris-buffered saline with Tween 20 (TBST; 15 mM Tris-HCl, pH 7.5, 200mMNaCl and 0.1% Tween 20). Membranes were incubated with primary antibodies at 4° C. overnight and at room temperature for 1 hour the next day; all primary antibodies were diluted following manufacturer's specifications in TBST with either 5% BSA or 5% non-fat dry milk. Membranes were washed in TBST for 5 minutes, three times, and incubated with HRP-conjugated secondary antibodies diluted 1:5000 in TBST with 5% non-fat dry milk at room temperature for 1 hour (anti-rabbit IgG, Bio-Rad Cat. #1706515; or anti-mouse IgG, Bio-Rad Cat. #1706516). Membranes were then washed in TBST for 10 minutes, three times, and target proteins were identified using Clarity Western ECL Substrate (Bio-Rad Cat. #1705061) on autoradiography film (GenHunter Cat. #B581, Nashville, Tenn., USA). Other assay types, such as Luminex multiplexed immunoassays, ICC, IHC, flow cytometry, etc. can be used readily.

HPAF-II cells = assay: Western blot of protein biomarkers; details: trametinib (100 nM)+IL-17 (10 ng/mL), 24 hours
Experimental: as §4, §5

BICR-16 = assay: WST-8 cell viability assay; details: in combination with GSK-458, 72 hours
Experimental: as §1, §2, §3

BxPC-3 = assay: WST-8 cell viability assay; details: in combination with GSK-458, 72 hours
Experimental: as §1, §2, §3

CAL27 = assay: WST-8 cell viability assay; details: in combination with GSK-795, 72 hours
Experimental: as §1, §2, §3

HTB-38 = assay: WST-8 cell viability assay
Experimental: as §1, §2, §3

OE21 = assay: WST-8 cell viability assay; details: in combination with trametinib, 72 hours
Experimental: as §1, §2, §3

CAL27 cells = assay: Western blot of protein biomarkers; details: GSK-795 (10 nM)+IFN-γ (50 ng/mL)
Experimental: as §4, §5

[1] = tested on: panel of cell lines that included NSCLC, HNSCC, melanoma, and CRC; assay: WST8 in vitro sensitivity to MTAs with and without EM
Experimental: as §1
We used a panel of cell lines that included NSCLC, HNSCC, melanoma, and CRC. These cell lines are a good model system harboring similar (epi)genetic changes found in patients' tumors. We used the WST8 assay to determine the in vitro sensitivity to various MTAs with and without EM1.

Calu-6 cells = assay: Western blot of protein biomarkers; details: GSK-458 (100 nM)+TNF-β (50 ng/mL), 24 hours
Experimental: as §4, §5

[2] = in combination with trametinib, 72 hours
[3] = 24 hours, compared to either MTA or EM alone
[4] = compared to either therapy alone
[5] = in combination with GSK-458, 72 hours

Molecule: interleukin 17 [EM5]
- anti-cancer/growth enhancement (WST-8 cell viability) (A-253): moderate-to-strong anti-cancer/growth enhancement
- anti-cancer/growth enhancement (WST-8 cell viability) (Ca9-22): moderate-to-strong anti-cancer/growth enhancement
- anti-cancer/growth enhancement (WST-8 cell viability) (Calu-6; [2]): moderate-to-strong anti-cancer/growth enhancement
- anti-cancer/growth enhancement (WST-8 cell viability) (H2170): moderate-to-strong anti-cancer/growth enhancement
- anti-cancer/growth enhancement (WST-8 cell viability) (HPAF-II; [2]): moderate-to-strong anti-cancer/growth enhancement
- p-AKT (Ser473) expression (Ca9-22 cells; [3]): strong reduction in p-AKT (Ser473) expression
- Ki67 expression (Ca9-22 cells; compared to both MTA and EM alone): enhanced reduction in Ki67 expression
- PARP cleavage (HPAF-II cells; compared to MTA and EM alone): very strong PARP cleavage
- p-AKT (Ser473) expression (HPAF-II cells; compared to either MTA or EM alone): strong reduction in p-AKT (Ser473) expression
- Ki67 degradation and/or fragmentation pattern (HPAF-II cells; [4]): marked increase in the distinct degradation and/or fragmentation pattern of Ki67

Molecule: interferon-gamma [EM1, enhancer molecule, cytokine purchased from Sigma]
- anti-cancer/growth enhancement (WST-8 cell viability) (BICR-16): moderate-to-strong anti-cancer/growth enhancement
- anti-cancer/growth enhancement (WST-8 cell viability) (BxPC-3): moderate-to-strong anti-cancer/growth enhancement
- anti-cancer/growth enhancement (WST-8 cell viability) (CAL27): moderate-to-strong anti-cancer/growth enhancement
- anti-cancer/growth enhancement (WST-8 cell viability) (Calu-6; in combination with GSK-795, 72 hours): moderate-to-strong anti-cancer/growth enhancement
- anti-cancer/growth enhancement (WST-8 cell viability) (HPAF-II; [5]): moderate-to-strong anti-cancer/growth enhancement
- anti-cancer/growth enhancement (WST-8 cell viability) (HPAF-II; [2]): moderate-to-strong anti-cancer/growth enhancement
- anti-cancer/growth enhancement (WST-8 cell viability) (HTB-38; [5]): moderate-to-strong anti-cancer/growth enhancement
- anti-cancer/growth enhancement (WST-8 cell viability) (HTB-38; in combination with dabrafenib, 72 hours): moderate-to-strong anti-cancer/growth enhancement
- anti-cancer/growth enhancement (WST-8 cell viability) (HTB-38; [2]): moderate-to-strong anti-cancer/growth enhancement
- anti-cancer/growth enhancement (WST-8 cell viability) (OE21): moderate-to-strong anti-cancer/growth enhancement
- p-AKT (Ser473) expression (CAL27 cells; [3]): strong reduction in p-AKT (Ser473) expression
- LC3II over LC3I expression (CAL27 cells; 24 hours, compared to either alone): marked increase in LC3II over LC3I expression
- p62 expression (CAL27 cells; [4]): reduced p62 expression
- response enhancement (in vitro sensitivity to various MTAs with and without EM, WST8) [1]: no, minimal and strong response enhancement

B1: tumor necrosis factor-beta (protein, UniProt P01374 35-205, looked up)
Lymphotoxin-alpha: LPGVGLTPSAAQTARQHPKMHLAHSTLKPAAHLIGDPSKQNSLLWRANTDRAFLQDGFSLSNNSLLVPTSGIYFVYSQVVFSGKAYSPKATSSPLYLAHEVQLFSSQYPFHVPLLSSQKMVYPGLQEPWLHSMYHGAAFQLTQGDQLSTHTDGIPHLVLSPSTVFFGAFAL
notes: enhancer molecule, cytokine purchased from Sigma
- anti-cancer/growth enhancement (WST-8 cell viability) (Ca9-22): anti-cancer/growth enhancement
- PARP cleavage (Calu-6 cells; compared to MTA and EM alone): very strong PARP cleavage
- Ki67 degradation and/or fragmentation pattern (Calu-6 cells; [4]): marked increase in the distinct degradation and/or fragmentation pattern of Ki67
